Where a name gives a salt, the structure may show the parent alone.
Assays:
[1] = molecular target: T1, PDE3 (cGMP-inhibited) (Homo sapiens, UniProt Q14432); experiment: Inhibition of PDE isoenzymes: PDE3; type: biochemical; conditions: homogenates of human platelets, cAMP or cGMP as substrate; read-out: PDE3 [-log IC50, mol/l] (converted)
T1 construct: investigated in homogenates of human platelets; from tissue; host or cells: homogenates of human platelets
Protocol: (§1) 1. Inhibition of PDE Isoenzymes
(§2) The PDE activity was determined according to Thompson et al. (Adv Cycl Nucl Res 10: 69-92, 1979) with some modifications (Bauer and Schwabe, Naunyn-Schmiedeberg's Arch Pharmacol 311: 193198, 1980). The test samples contained 20 mM Tris (pH 7.4), 5 mM MgCl2, 0.5 μM cAMP or cGMP, [^3H]cAMP or [^3H]cGMP (about 30 000 cpm/sample), the PDE isoenzyme-specific additives described in greater detail below, the indicated concentrations of inhibitor and an aliquot of the enzyme solution in a total sample volume of 200 μl. Dilution series of the compounds according to the invention were prepared in DMSO and further diluted in the samples [1:100 (v/v)], to give the desired end concentration of the inhibitors at a DMSO concentration of 1% (v/v), which for its part has only a minute effect on PDE activity.
(§3) After preincubation at 37° C. for 5 minutes, the reaction was started by addition of the substrate (cAMP or cGMP). The samples were incubated at 37° C. for a further 15 min. The reaction was terminated by addition of 50 μl 0.2 N HCl. After cooling on ice for 10 minutes and addition of 25 μg 5′-nucleotidase (snake venom from Crotalus atrox), the mixture was again incubated at 37° C. for 10 min and the samples were then applied to QAE Sephadex A-25 columns (sample volume 1 ml). The columns were eluted with 2 ml of 30 mM ammonium formate (pH 6.0). The radioactivity of the eluate was measured and corrected by the corresponding blank values (measured in the presence of denatured protein); the blank values were less than 5% of the total radioactivity. In no case did the proportion of hydrolyzed nucleotide exceed 30% of the original substrate concentration.
PDE3 (cGMP-inhibited) was investigated in homogenates of human platelets (see Schudt et al., Biochem Pharmacol 1991: 42, 153-162) using cAMP or cGMP as substrate.
(§4) The IC50 values were determined from the concentration-inhibition curves by nonlinear regression.

[2] = molecular target: PDE4 (cAMP-specific); experiment: Inhibition of PDE isoenzymes: PDE4; type: biochemical; conditions: cytosol of human polymorphonuclear leukocytes (PMNL), cAMP as substrate, motapizone 1 μM
Protocol: as §1, §2, §3
PDE4 (cAMP-specific) was investigated in the cytosol of human polymorphonuclear leukocytes (PMNL) [isolated from leukocyte concentrates, see Schudt et al., Arch Pharmacol 1991: 344, 682-690] using cAMP as substrate. The PDE3 inhibitor motapizone (1 μM) was used to suppress the PDE3 activity emanating from contaminated platelets.
as §4

T1 sequence (Q14432 whole entry): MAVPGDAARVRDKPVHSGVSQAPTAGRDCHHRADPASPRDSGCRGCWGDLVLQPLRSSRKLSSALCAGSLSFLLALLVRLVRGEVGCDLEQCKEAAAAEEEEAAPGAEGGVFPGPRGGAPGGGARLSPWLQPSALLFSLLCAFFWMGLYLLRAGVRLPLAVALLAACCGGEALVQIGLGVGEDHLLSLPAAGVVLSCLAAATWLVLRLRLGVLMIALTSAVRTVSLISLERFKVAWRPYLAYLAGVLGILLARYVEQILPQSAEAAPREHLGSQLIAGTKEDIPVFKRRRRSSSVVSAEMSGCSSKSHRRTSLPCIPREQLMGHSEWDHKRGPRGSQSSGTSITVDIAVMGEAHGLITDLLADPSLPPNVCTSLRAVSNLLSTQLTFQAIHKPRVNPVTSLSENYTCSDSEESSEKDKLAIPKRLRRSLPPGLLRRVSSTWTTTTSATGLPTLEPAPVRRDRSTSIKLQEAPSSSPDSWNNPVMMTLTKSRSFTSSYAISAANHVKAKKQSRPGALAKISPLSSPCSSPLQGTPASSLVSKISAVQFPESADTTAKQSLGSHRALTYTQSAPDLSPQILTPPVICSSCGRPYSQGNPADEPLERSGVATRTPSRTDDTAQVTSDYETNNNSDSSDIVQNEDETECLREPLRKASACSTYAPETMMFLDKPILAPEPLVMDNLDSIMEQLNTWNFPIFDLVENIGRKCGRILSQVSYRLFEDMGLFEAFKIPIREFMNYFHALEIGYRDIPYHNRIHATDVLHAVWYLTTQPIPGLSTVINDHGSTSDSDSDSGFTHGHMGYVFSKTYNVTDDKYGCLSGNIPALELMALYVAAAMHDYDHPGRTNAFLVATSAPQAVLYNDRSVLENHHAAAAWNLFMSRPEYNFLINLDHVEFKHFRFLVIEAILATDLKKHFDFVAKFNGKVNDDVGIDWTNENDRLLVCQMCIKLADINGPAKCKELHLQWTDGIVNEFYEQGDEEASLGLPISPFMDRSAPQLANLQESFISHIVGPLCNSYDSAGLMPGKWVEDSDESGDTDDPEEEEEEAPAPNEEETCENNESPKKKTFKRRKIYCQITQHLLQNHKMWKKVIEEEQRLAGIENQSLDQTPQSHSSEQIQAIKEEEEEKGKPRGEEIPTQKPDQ

melting point	IC50 [1]	PDE4 [-log IC50, mol/l] [2]	Structure (SMILES)
209 to 215 °C	–	–	CCOc1cc2c(cc1OC)C(c1ccc(C(=O)N=C(N)N3CCN(C)CC3)cc1)=NC1CCN(C)CC21 (stereo not drawn) (as salt: hydrochloride) [Compound 6, N-[1-Amino-1-(4-methylpiperazin-1-yl)methylene]-4-((+)-cis-9-ethoxy-8-methoxy-2-methyl-1,2,3,4,4a,10b-hexahydro[c][1,6]naphthyridin-6-yl)benzamide dihydrochloride]
145 to 152 °C	0.55 µM	8.41	CCOc1cc2c(cc1OC)C(c1ccc(C(=O)NC(=N)N3CCCC3)cc1)=N[C@H]1CCN(C)C[C@@H]21 (relative stereo) [Compound 11, 4-((cis)-9-Ethoxy-8-methoxy-2-methyl-1,2,3,4,4a,10b-hexahydro-benzo[c][1,6]naphthyridin-6-yl)-N-(1-imino-1-pyrrolidin-1-yl-methyl)-benzamide]
143 to 150 °C	0.0912 µM	9.34	CCOc1cc2c(cc1OC)C(c1ccc(C(=O)NC(=NC)N(C)C)cc1)=N[C@H]1CCN(C)C[C@@H]21.Cl (relative stereo) [Compound 13, N′-{1-[4-((cis)-9-Ethoxy-8-methoxy-2-methyl-1,2,3,4,4a,10b-hexahydro-benzo[c][1,6]naphthyridin-6-yl)-phenyl]-methanoyl}-N,N,N″-trimethyl-guanidine hydrochloride]
169 to 175 °C	–	–	CCOc1cc2c(cc1OC)C(c1ccc(C(=O)N=C(N(C)C)N(C)C)cc1)=NC1CCN(C)CC21 (single isomer, unassigned) (as salt: hydrochloride) [Compound 5, N″{1-[4-((−)-cis-9-Ethoxy-8-methoxy-2-methyl-1,2,3,4,4a,10b-hexahydro[c][1.6]naphthyridin-6-yl)phenyl]methanoyl}-N,N,N′,N′-tetramethylguanidine hydrochloride]
220 to 224 °C	0.676 µM	7.71	CCOc1cc2c(cc1OC)C(c1ccc(C(=O)NC(=N)N(C)C)cc1)=NC1CC[N+](C)([O-])CC21 (single isomer, unassigned) [Compound 22, N′-{1-[4-((−)-cis-9-Ethoxy-8-methoxy-2-methyl-2-oxy-1,2,3,4,4a,10b-hexahydro-benzo[c][1,6]naphthyridin-6-yl)-phenyl]-methanoyl}-N,N-dimethyl-guanidine]
186 to 188 °C	0.891 µM	8.15	CCOc1cc2c(cc1OC)C(c1cccc(C(=O)NC(=N)N(C)C)c1)=NC1CCN(C)CC21 (stereo not drawn) [Compound 10, N′-{1-[3-(cis)-9-Ethoxy-8-methoxy-2-methyl-1,2,3,4,4a,10b-hexahydro-benzo[c][c][1,6]naphthyridin-6-yl)-phenyl]-methanoyl}-N,N-dimethyl-guanidine]

— US6936622B2, “6-phenylbenzonaphthyridines” (Altana Pharma AG, priority 2001, dated 2005)
